In ChEMBL document CHEMBL1135855, “4-amidinobenzylamine-based inhibitors of urokinase” (Bioorg Med Chem Lett, 2002):
pKi: −log10 of the molar value.

molecular target: T1, Urokinase-type plasminogen activator (Homo sapiens, UniProt P00749)

| Structure (SMILES) | pKi |
| --- | --- |
| C[C@H](NC(=O)[C@@H](CO)NS(=O)(=O)CCc1ccccc1)C(=O)N[C@H]1CCCN(C(=N)N)C1O (stereo partly drawn) | 5.51 |

molecular target: Coagulation factor X (Homo sapiens, UniProt P00742); assay: In vitro inhibition of Coagulation factor Xa.
Sequence (P00742 41-179 limits assumed): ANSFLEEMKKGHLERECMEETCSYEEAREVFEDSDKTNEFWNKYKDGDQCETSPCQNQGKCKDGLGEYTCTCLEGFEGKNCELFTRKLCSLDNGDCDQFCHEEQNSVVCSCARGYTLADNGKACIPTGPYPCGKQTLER
Sequence (P00742 235-488 limits assumed): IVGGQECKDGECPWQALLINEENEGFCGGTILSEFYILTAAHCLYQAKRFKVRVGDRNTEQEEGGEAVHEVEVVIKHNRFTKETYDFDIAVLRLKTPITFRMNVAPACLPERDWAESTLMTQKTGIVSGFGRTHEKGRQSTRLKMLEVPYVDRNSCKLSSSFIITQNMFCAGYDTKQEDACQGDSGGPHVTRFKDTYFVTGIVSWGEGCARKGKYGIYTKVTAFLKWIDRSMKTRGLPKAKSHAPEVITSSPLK

| Structure (SMILES) | pKi |
| --- | --- |
| N=C(N)c1ccc(CNC(=O)CNS(=O)(=O)c2ccc3ccccc3c2)cc1 | 4.97 |
| CC(C)c1cc(S(=O)(=O)N[C@H](CO)C(=O)NCC(=O)NCc2ccc(C(=N)N)cc2)cc(C(C)C)c1C(C)C | 4.00 |
| N/C(=N\O)c1ccc(CNC(=O)CNC(=O)[C@@H](CO)NS(=O)(=O)Cc2ccccc2)cc1 | < 3.00 |
| C[C@H](NC(=O)[C@@H](CO)NS(=O)(=O)Cc1ccccc1)C(=O)NCc1ccc(C(=N)N)cc1 | 5.68 |
| N=C(N)c1ccc(CNC(=O)CNC(=O)[C@@H](CO)NS(=O)(=O)CC2CCCCC2)cc1 | 5.70 |
| N=C(N)c1ccc(CNC(=O)CNC(=O)[C@@H](CO)NS(=O)(=O)Cc2ccccc2)cc1 | 5.52 |
| N=C(N)c1ccc(CNC(=O)[C@H]2CCCN2C(=O)[C@@H](CO)NS(=O)(=O)Cc2ccccc2)cc1 | 5.70 |
| COC(=O)OC[C@@H](NS(=O)(=O)Cc1ccccc1)C(=O)NCC(=O)NCc1ccc(C(=N)N)cc1 | 6.47 |
| CC(C)(C)OC(=O)NC(CCC(=O)O)C(=O)NCC(=O)NCc1ccc(C(=N)N)cc1 (stereo not drawn) | < 3.00 |
| N=C(N)c1ccc(CNC(=O)CNC(=O)[C@H](N)CO)cc1 | < 3.00 |
| N=C(N)c1ccc(CNC(=O)CNC(=O)[C@@H](N)CCC(=O)O)cc1 | < 3.00 |
| N=C(N)c1ccc(CNC(=O)CNC(=O)[C@@H](N)CO)cc1 | < 3.00 |
| N=C(N)c1ccc(CNC(=O)CNC(=O)[C@@H](CO)NS(=O)(=O)c2ccc3ccccc3c2)cc1 | 4.55 |
| CC(=O)N[C@H](CO)C(=O)NCC(=O)NCc1ccc(C(=N)N)cc1 | < 3.00 |
| CC(C)(C)OC(=O)N[C@@H](CO)C(=O)NCC(=O)NCc1ccc(C(=N)N)cc1 | 3.96 |
| N=C(N)c1ccc(CNC(=O)CNC(=O)[C@@H](CO)NS(=O)(=O)/C=C/c2ccccc2)cc1 | 4.82 |
| N=C(N)c1ccc(CNC(=O)CNC(=O)[C@@H](CO)NS(=O)(=O)CCc2ccccc2)cc1 | 4.55 |
| N=C(N)c1ccc(CNC(=O)CNC(=O)[C@@H](CO)NC(=O)OCc2ccccc2)cc1 | 3.85 |
| CC(C)COC(=O)OC[C@@H](NS(=O)(=O)Cc1ccccc1)C(=O)N[C@@H](C)C(=O)NCc1ccc(C(=N)N)cc1 | 6.39 |
| CC(C)(C)OC(=O)N[C@H](CO)C(=O)NCC(=O)NCc1ccc(C(=N)N)cc1 | 3.85 |

molecular target: Prothrombin (Homo sapiens, UniProt P00734); assay: In vitro inhibition of thrombin.

| Structure (SMILES) | pKi |
| --- | --- |
| N=C(N)c1ccc(CNC(=O)CNS(=O)(=O)c2ccc3ccccc3c2)cc1 | 4.80 |
| CC(C)c1cc(S(=O)(=O)N[C@H](CO)C(=O)NCC(=O)NCc2ccc(C(=N)N)cc2)cc(C(C)C)c1C(C)C | 4.82 |
| N/C(=N\O)c1ccc(CNC(=O)CNC(=O)[C@@H](CO)NS(=O)(=O)Cc2ccccc2)cc1 | < 3.00 |
| C[C@H](NC(=O)[C@@H](CO)NS(=O)(=O)Cc1ccccc1)C(=O)NCc1ccc(C(=N)N)cc1 | 6.96 |
| N=C(N)c1ccc(CNC(=O)CNC(=O)[C@@H](CO)NS(=O)(=O)CC2CCCCC2)cc1 | 5.00 |
| N=C(N)c1ccc(CNC(=O)CNC(=O)[C@@H](CO)NS(=O)(=O)Cc2ccccc2)cc1 | 4.89 |
| N=C(N)c1ccc(CNC(=O)[C@H]2CCCN2C(=O)[C@@H](CO)NS(=O)(=O)Cc2ccccc2)cc1 | 7.92 |
| COC(=O)OC[C@@H](NS(=O)(=O)Cc1ccccc1)C(=O)NCC(=O)NCc1ccc(C(=N)N)cc1 | 5.52 |
| CC(C)(C)OC(=O)NC(CCC(=O)O)C(=O)NCC(=O)NCc1ccc(C(=N)N)cc1 (stereo not drawn) | < 3.00 |
| N=C(N)c1ccc(CNC(=O)CNC(=O)[C@H](N)CO)cc1 | 3.70 |
| N=C(N)c1ccc(CNC(=O)CNC(=O)[C@@H](N)CCC(=O)O)cc1 | < 3.00 |
| N=C(N)c1ccc(CNC(=O)CNC(=O)[C@@H](N)CO)cc1 | < 3.00 |
| CC(C)COC(=O)OC[C@@H](NS(=O)(=O)Cc1ccccc1)C(=O)NCC(=O)NCc1ccc(C(=N)N)cc1 | 5.40 |
| N=C(N)c1ccc(CNC(=O)CNC(=O)[C@@H](CO)NS(=O)(=O)c2ccc3ccccc3c2)cc1 | 4.96 |
| CC(=O)N[C@H](CO)C(=O)NCC(=O)NCc1ccc(C(=N)N)cc1 | < 3.00 |
| CC(C)(C)OC(=O)N[C@@H](CO)C(=O)NCC(=O)NCc1ccc(C(=N)N)cc1 | 4.16 |
| N=C(N)c1ccc(CNC(=O)CNC(=O)[C@@H](CO)NS(=O)(=O)/C=C/c2ccccc2)cc1 | 4.82 |
| N=C(N)c1ccc(CNC(=O)CNC(=O)[C@@H](CO)NS(=O)(=O)CCc2ccccc2)cc1 | 4.48 |
| N=C(N)c1ccc(CNC(=O)CNC(=O)[C@@H](CO)NC(=O)OCc2ccccc2)cc1 | 3.64 |
| CC(C)COC(=O)OC[C@@H](NS(=O)(=O)Cc1ccccc1)C(=O)N[C@@H](C)C(=O)NCc1ccc(C(=N)N)cc1 | 7.30 |
| CC(C)(C)OC(=O)N[C@H](CO)C(=O)NCC(=O)NCc1ccc(C(=N)N)cc1 | 3.77 |

molecular target: T1, Urokinase-type plasminogen activator; assay: In vitro inhibition of plasminogen activator urokinase.

| Structure (SMILES) | pKi |
| --- | --- |
| CC(C)c1cc(S(=O)(=O)N[C@H](CO)C(=O)NCC(=O)NCc2ccc(C(=N)N)cc2)cc(C(C)C)c1C(C)C | 5.82 |
| CC(C)(C)OC(=O)NC(CCC(=O)O)C(=O)NCC(=O)NCc1ccc(C(=N)N)cc1 (stereo not drawn) | 4.09 |
| N=C(N)c1ccc(CNC(=O)CNC(=O)[C@@H](N)CCC(=O)O)cc1 | 4.66 |
| N=C(N)c1ccc(CNC(=O)CNC(=O)[C@@H](CO)NS(=O)(=O)c2ccc3ccccc3c2)cc1 | 5.92 |
| N=C(N)c1ccc(CNC(=O)CNC(=O)[C@@H](CO)NS(=O)(=O)/C=C/c2ccccc2)cc1 | 5.66 |
| N=C(N)c1ccc(CNC(=O)CNC(=O)[C@@H](CO)NS(=O)(=O)CCc2ccccc2)cc1 | 6.31 |
| N=C(N)c1ccc(CNC(=O)CNC(=O)[C@@H](CO)NC(=O)OCc2ccccc2)cc1 | 5.40 |
| CC(C)COC(=O)OC[C@@H](NS(=O)(=O)Cc1ccccc1)C(=O)N[C@@H](C)C(=O)NCc1ccc(C(=N)N)cc1 | 7.37 |
| CC(C)(C)OC(=O)N[C@H](CO)C(=O)NCC(=O)NCc1ccc(C(=N)N)cc1 | 5.05 |
| CC(NS(=O)(=O)c1ccc2ccccc2c1)C(=O)NCc1ccc(C(=N)N)cc1 (single isomer, unassigned; (-)) | 5.02 |

molecular target: Plasminogen (Homo sapiens, UniProt P00747); assay: In vitro inhibition of Plasmin.
Sequence (P00747 97-580 limits assumed): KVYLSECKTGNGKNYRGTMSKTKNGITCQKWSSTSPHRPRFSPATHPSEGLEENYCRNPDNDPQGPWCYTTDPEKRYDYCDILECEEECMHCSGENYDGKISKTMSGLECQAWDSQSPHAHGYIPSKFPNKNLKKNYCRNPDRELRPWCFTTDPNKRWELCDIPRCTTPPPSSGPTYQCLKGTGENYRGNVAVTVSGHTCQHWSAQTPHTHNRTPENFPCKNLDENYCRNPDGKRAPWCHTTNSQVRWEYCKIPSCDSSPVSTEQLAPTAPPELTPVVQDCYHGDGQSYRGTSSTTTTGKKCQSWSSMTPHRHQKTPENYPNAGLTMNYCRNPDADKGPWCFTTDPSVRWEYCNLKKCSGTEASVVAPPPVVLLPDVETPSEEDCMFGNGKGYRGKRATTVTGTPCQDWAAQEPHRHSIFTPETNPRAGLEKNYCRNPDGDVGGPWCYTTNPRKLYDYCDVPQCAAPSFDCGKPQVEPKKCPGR
Sequence (P00747 581-810 limits assumed): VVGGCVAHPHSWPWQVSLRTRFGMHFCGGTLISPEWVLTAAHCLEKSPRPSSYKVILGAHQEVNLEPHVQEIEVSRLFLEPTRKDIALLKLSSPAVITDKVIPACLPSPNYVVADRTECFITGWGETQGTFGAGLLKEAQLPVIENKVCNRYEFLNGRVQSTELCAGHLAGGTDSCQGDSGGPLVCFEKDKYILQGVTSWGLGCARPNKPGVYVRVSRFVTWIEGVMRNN

| Structure (SMILES) | pKi |
| --- | --- |
| N=C(N)c1ccc(CNC(=O)CNS(=O)(=O)c2ccc3ccccc3c2)cc1 | 4.37 |
| CC(C)c1cc(S(=O)(=O)N[C@H](CO)C(=O)NCC(=O)NCc2ccc(C(=N)N)cc2)cc(C(C)C)c1C(C)C | 4.12 |
| N/C(=N\O)c1ccc(CNC(=O)CNC(=O)[C@@H](CO)NS(=O)(=O)Cc2ccccc2)cc1 | < 3.00 |
| C[C@H](NC(=O)[C@@H](CO)NS(=O)(=O)Cc1ccccc1)C(=O)NCc1ccc(C(=N)N)cc1 | 6.27 |
| N=C(N)c1ccc(CNC(=O)CNC(=O)[C@@H](CO)NS(=O)(=O)CC2CCCCC2)cc1 | 4.77 |
| N=C(N)c1ccc(CNC(=O)[C@H]2CCCN2C(=O)[C@@H](CO)NS(=O)(=O)Cc2ccccc2)cc1 | 6.82 |
| COC(=O)OC[C@@H](NS(=O)(=O)Cc1ccccc1)C(=O)NCC(=O)NCc1ccc(C(=N)N)cc1 | 4.96 |
| CC(C)(C)OC(=O)NC(CCC(=O)O)C(=O)NCC(=O)NCc1ccc(C(=N)N)cc1 (stereo not drawn) | < 3.00 |
| N=C(N)c1ccc(CNC(=O)CNC(=O)[C@H](N)CO)cc1 | < 3.00 |
| N=C(N)c1ccc(CNC(=O)CNC(=O)[C@@H](N)CCC(=O)O)cc1 | < 3.00 |
| N=C(N)c1ccc(CNC(=O)CNC(=O)[C@@H](N)CO)cc1 | < 3.00 |
| CC(C)COC(=O)OC[C@@H](NS(=O)(=O)Cc1ccccc1)C(=O)NCC(=O)NCc1ccc(C(=N)N)cc1 | 5.62 |
| N=C(N)c1ccc(CNC(=O)CNC(=O)[C@@H](CO)NS(=O)(=O)c2ccc3ccccc3c2)cc1 | 4.49 |
| CC(=O)N[C@H](CO)C(=O)NCC(=O)NCc1ccc(C(=N)N)cc1 | < 3.00 |
| CC(C)(C)OC(=O)N[C@@H](CO)C(=O)NCC(=O)NCc1ccc(C(=N)N)cc1 | 3.68 |
| N=C(N)c1ccc(CNC(=O)CNC(=O)[C@@H](CO)NS(=O)(=O)/C=C/c2ccccc2)cc1 | 3.85 |
| N=C(N)c1ccc(CNC(=O)CNC(=O)[C@@H](CO)NS(=O)(=O)CCc2ccccc2)cc1 | 4.23 |
| N=C(N)c1ccc(CNC(=O)CNC(=O)[C@@H](CO)NC(=O)OCc2ccccc2)cc1 | 3.80 |
| CC(C)COC(=O)OC[C@@H](NS(=O)(=O)Cc1ccccc1)C(=O)N[C@@H](C)C(=O)NCc1ccc(C(=N)N)cc1 | 6.82 |
| CC(C)(C)OC(=O)N[C@H](CO)C(=O)NCC(=O)NCc1ccc(C(=N)N)cc1 | < 3.00 |

molecular target: Serine protease 1 (Homo sapiens, UniProt P07477); assay: In vitro inhibition of trypsin.
Sequence (P07477 whole entry): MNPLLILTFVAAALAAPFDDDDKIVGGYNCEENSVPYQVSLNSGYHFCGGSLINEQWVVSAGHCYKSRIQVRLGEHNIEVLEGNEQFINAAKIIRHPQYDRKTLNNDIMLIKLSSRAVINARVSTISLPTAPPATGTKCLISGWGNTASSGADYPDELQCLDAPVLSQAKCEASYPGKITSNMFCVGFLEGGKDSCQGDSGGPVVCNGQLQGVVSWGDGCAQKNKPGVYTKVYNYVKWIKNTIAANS

| Structure (SMILES) | pKi |
| --- | --- |
| N=C(N)c1ccc(CNC(=O)CNS(=O)(=O)c2ccc3ccccc3c2)cc1 | 6.19 |
| CC(C)c1cc(S(=O)(=O)N[C@H](CO)C(=O)NCC(=O)NCc2ccc(C(=N)N)cc2)cc(C(C)C)c1C(C)C | 5.47 |
| N/C(=N\O)c1ccc(CNC(=O)CNC(=O)[C@@H](CO)NS(=O)(=O)Cc2ccccc2)cc1 | < 3.00 |
| C[C@H](NC(=O)[C@@H](CO)NS(=O)(=O)Cc1ccccc1)C(=O)NCc1ccc(C(=N)N)cc1 | 8.48 |
| N=C(N)c1ccc(CNC(=O)CNC(=O)[C@@H](CO)NS(=O)(=O)CC2CCCCC2)cc1 | 6.96 |
| N=C(N)c1ccc(CNC(=O)CNC(=O)[C@@H](CO)NS(=O)(=O)Cc2ccccc2)cc1 | 6.82 |
| N=C(N)c1ccc(CNC(=O)[C@H]2CCCN2C(=O)[C@@H](CO)NS(=O)(=O)Cc2ccccc2)cc1 | 8.49 |
| COC(=O)OC[C@@H](NS(=O)(=O)Cc1ccccc1)C(=O)NCC(=O)NCc1ccc(C(=N)N)cc1 | 7.19 |
| CC(C)(C)OC(=O)NC(CCC(=O)O)C(=O)NCC(=O)NCc1ccc(C(=N)N)cc1 (stereo not drawn) | 5.55 |
| N=C(N)c1ccc(CNC(=O)CNC(=O)[C@H](N)CO)cc1 | 5.16 |
| N=C(N)c1ccc(CNC(=O)CNC(=O)[C@@H](N)CCC(=O)O)cc1 | 5.30 |
| N=C(N)c1ccc(CNC(=O)CNC(=O)[C@@H](N)CO)cc1 | 5.15 |
| CC(C)COC(=O)OC[C@@H](NS(=O)(=O)Cc1ccccc1)C(=O)NCC(=O)NCc1ccc(C(=N)N)cc1 | 6.92 |
| N=C(N)c1ccc(CNC(=O)CNC(=O)[C@@H](CO)NS(=O)(=O)c2ccc3ccccc3c2)cc1 | 5.74 |
| CC(=O)N[C@H](CO)C(=O)NCC(=O)NCc1ccc(C(=N)N)cc1 | 4.85 |
| CC(C)(C)OC(=O)N[C@@H](CO)C(=O)NCC(=O)NCc1ccc(C(=N)N)cc1 | 5.47 |
| N=C(N)c1ccc(CNC(=O)CNC(=O)[C@@H](CO)NS(=O)(=O)/C=C/c2ccccc2)cc1 | 5.77 |
| N=C(N)c1ccc(CNC(=O)CNC(=O)[C@@H](CO)NS(=O)(=O)CCc2ccccc2)cc1 | 6.05 |
| N=C(N)c1ccc(CNC(=O)CNC(=O)[C@@H](CO)NC(=O)OCc2ccccc2)cc1 | 5.37 |
| CC(C)COC(=O)OC[C@@H](NS(=O)(=O)Cc1ccccc1)C(=O)N[C@@H](C)C(=O)NCc1ccc(C(=N)N)cc1 | 8.32 |
| CC(C)(C)OC(=O)N[C@H](CO)C(=O)NCC(=O)NCc1ccc(C(=N)N)cc1 | 5.35 |
